Experimental data from patent publication US9913478B2, “Organic and environmentally “green” biocide compositions and applications” (Arrowhead Center, Inc., priority 2013, dated 2018).

Test system: X. campestris Provencia strain
Assay: growth (CFU) after 18 hours of incubation, oil compared to carvacrol (FIG. 2)
Assay type: cell-based, Xanthomonas campestris
Details: 0.01 mg/ml, oil vs carvacrol p-value=0.009
Method: The bars in the graph indicate the bacterial number (CFU) that was reached after 18 hours of incubation. […] Thus, a composition of biocide comprising oregano oil exerts synergistic effects, due, in part, to the multiple antimicrobial biochemicals that make up the oil (see FIG. 1).

Cc1ccc(C(C)C)cc1O [Carvacrol, carvacrol]
inhibition of growth, bacterial number (CFU): not as effective as the essential oil
